Assay results reported in US9938235B2, “Compounds with neural protective effect, and preparation and use thereof” (GUANGZHOU MAGPIE PHARMACEUTICAL CO., LTD., priority 2014, dated 2018).

Experiments:
[1] = system: MPTP-induced abnormal behavior of mice of Parkinson's disease (PD) model; experiment: Behavioral test in MPTP-induced mice of Parkinson's disease (PD) model; type: in vivo, C57BL/6J mice; conditions: MT-019 25, 75, 225 mg/kg once a day for seven days; behavioral test on day 7 of administration
Experimental: (§1) Forty of C57BL/6J mice (male, 6 to 7 week-old) were feed for 7 days to adapt to the environment. On the day 8, animal model was started to prepare. 20 mg/kg MPTP was given via intraperitoneal injection for the model group and drug group, the injection was made every 2 hours, for four times in total, and an acute PD model was established. The equivalent amount of saline was given to the normal control group. From the day 2 of model establishment, the compound MT-019 and the positive control drug Rasagiline (1 mg/kg) were given. The doses of MT-019 were 25, 75, 225 mg/kg, respectively. The drug was given once a day, and a equal amount of saline was given to the normal control group and the MPTP model group, for seven days consecutively. On the day 7 of drug administration, behavioral test is performed.

TH neurons in SNpc area = experiment: TH neuron immunohistochemistry, SNpc area, MPTP-induced PD mice; type: in vivo, C57BL/6J mice
Experimental: as §1
After the above-mentioned animal model was set up and drug was given to the mice as described in Example 86, materials was taken at 12 hours after the last drug administration in the steps shown below: (1) With 10% chloral hydrate anesthesia in mice, the mice were fixed on an operating table, the chest thereof was quickly open; (2) […], […] the left ventricle, the right auricle was cut open, and a blood buffer was delivered to the heart from an infusion bottle with a volume of about 50 mL per mouse; (3) after the lavage fluid became colorless, the blood buffer was replaced with 4% paraformaldehyde solution in perfusion until the tail and limbs of the mice became stiff, wherein the infusion volume was about 100 mL per mouse; (4) the brain was taken by making the mice beheaded on a flat glass board, and redundant parts were carefully removed. The midbrain was placed and fixed in a centrifuge tube containing freshly prepared 4% paraformaldehydea. The samples were cut into paraffin sections through the process of dehydrating, transparent, paraffining and embedding steps. Each of the samples was cut with paraffin slicing machine into four microns slices. After fully unfold in water bath, the slices were put on glass plates and numbered. […]

C#CCNC(C)c1ccc(/C=[N+](\[O-])C(C)(C)C)c(OC(=O)N(C)CC)c1 (stereo not shown) [MT-019]
recovery effect to MPTP-induced abnormal behavior [1]: had recory effect | protective effect to dopaminergic neurons compared with positive control Rasagiline (TH neurons in SNpc area; 25 mg/kg MT-019 versus Rasagiline 1 mg/kg): equivalent to that of the positive control drug Rasagiline 1 mg/kg | protective effect on SNpc area TH neurons (positive cell count in substantia nigra) (TH neurons in SNpc area; MT-019 25, 75, 225 mg/kg once a day for seven days, material taken 12 hours after last administration): had protective effect | dose dependence of protective effect on TH neurons (TH neurons in SNpc area; doses 25, 75, 225 mg/kg): stronger effect was indicated with higher doses
